From patent US12102646B2, “Compositions for the treatment of fibrosis and inflammation” (Viking Therapeutics, Inc., priority 2018, dated 2024)

Legend:
Assay type in all cases: in vivo
DIO-NASH mice = assay: DIO-NASH mice, 8 weeks oral once-daily treatment, liver fibrosis read-outs (Example 1); conditions: for proportion of animals with reduction in fibrosis score post-treatment: compared with mock treated animals; for liver Picro-Sirius Red (PSR) staining (collagen 1 and 3): terminal liver sections, morphometry, Compound 1 vs mock, Compound 2 vs control- or mock-treated
Method: DIO-NASH mice were acclimatized for 3 weeks, with pre-treatment liver biopsy samples collected prior to acclimatization. Mice were randomly assigned to one of five dosing groups, with 12 mice per group. Assigned dosages were: Compound 2 (low): 3 mg/kg; Compound 2 (high): 10 mg/kg; Compound 1: 10 mg/kg; and Elafibranor (30 mg/kg). One group was mock treated with vehicle only as a control. Dosage forms were administered orally once per day. After 8 weeks, animals were sacrificed and liver samples were taken. Liver samples were assayed for total liver hydroxyproline, and subjected to immunohistochemical observation for fibrosis stage as well as the extent of ColaI (Collagen Type Ia) staining. […] Since hydroxyproline is a significant component of collagen, and collagen is the most significant source of hydroxyproline in animal tissues, levels of hydroxyproline provide a reliable proxy for the presence of collagen in a sample.
Terminal liver biopsy samples were also subjected to histochemical staining and immunohistochemical staining. Representative images of liver stained with Picro-Sirius Red (to visualize collagen I and III deposition, red stain) at the end of the treatment period following 8 weeks of treatment with vehicle, low dose Compound 2, high dose Compound 2, Compound 1, or elafibranor are shown in FIG. 2. […] Representative images of liver stained with anti-type I collagen (col1a1) (Southern Biotech, Cat. 131001) at the end of the treatment period following 8 weeks of treatment with vehicle, low dose Compound 2, high dose Compound 2, Compound 1, or elafibranor are shown in FIG. 3. The extent of Col1A1 content was calculated as the total liver Col1A1 staining in terminal liver biopsy samples.
Fibrosis scores were also calculated based on observation of terminal liver biopsy samples.

[1] = system: diet-induced NASH mouse model; assay: diet-induced NASH mouse model, 8 weeks dosing, liver/plasma biochemistry and histology (Example 6); conditions: for total liver galectin-3: compared to vehicle, 8 weeks dosing, FIG. 9
Method: (§1) Compound 2 was evaluated in a diet-induced NASH mouse model (See, e.g., Hansen, H. et al., Drug Discovery Today 22(17):1701-1718 (2017) which is hereby incorporated by reference with respect to its disclosure of diet-induced, genetic, chemical, and other NASH mouse models). […] Animals were biopsied pre-study, and only animals with NASH and fibrosis were selected for study. Selected animals were acclimatized and randomized, with experimental groups of 11-12 animals per cohort receiving oral dosing of compound 2 according to the following schedules: Daily dosing for 8 weeks; or daily dosing for week 0-1 followed by weekly dosing for weeks 2-8. At week 8, animals were sacrificed and tissues analyzed. Plasma enzymes (P-ALT (alanine aminotransferase) and P-AST (aspartate aminotransferase)), total plasma triglycerides, and total plasma cholesterol were measured, and terminal necropsy of each liver was carried out, assaying total liver biochemistry including total liver triglycerides, and total liver cholesterol, as well as histological evaluation of NAFLD activity score (done pre- and post-treatment), fibrosis stage (also done pre- and post-treatment), steatosis, Col1a1 level, and galactin-3 level. Tissue samples were preserved for characterization using RNAseq; RNAseq was used to determine expression levels for genes showing differential expression in compound 2-treated vs. vehicle treated animals and/or genes known to be implicated in fibrosis. Additionally, expression levels for genes known to be implicated in inflammation, such as ANXA2, were determined in compound 2-treated vs. vehicle treated animals.

[2] = system: pro-fibrotic and pro-inflammatory genes (Col1a1, Col3a1, ACTA2, LGALS1, ENPP2, ANXA2); assay: RNAseq liver gene expression in diet-induced NASH mouse model (Example 6); parameters: concentration or dose not given beside the values
Method: as §1

[3] = system: Sprague-Dawley Rats or C57BL mice with hypertrophic skin lesions; assay: hypertrophic skin lesions in rats or mice (Example 3); conditions: injection site skin samples; relative to levels prior to administration; 6-10 weeks
Description: Hypertrophic skin lesions are induced in Sprague-Dawley Rats by subcutaneous injection of capsaicin as described in Wallengren, J. et al., Skin Pharm. Appl. Skin Physiol. 15(3):154-165(2002), which is hereby incorporated by reference with respect to its description of the induction of hypertrophic skin lesions in rats; or in C57BL or other appropriate strain mice by subcutaneous administration of CCl4 and/or bleomycin, as described in Alonso-Merino et al., Proc. Nat. Acad. Sci. 113(24):E3451-60 (2016), which is incorporated herein for its disclosure of the induction of fibrotic skin lesions in mice. After the establishment of hypertrophic skin lesions in the capsaicin, CCl4 and/or bleomycin treated animals, test articles comprising any one of Compounds 1-4, or any other compound disclosed herein, are administered to each subject animal as appropriate for its formulation, daily or as appropriate, for 6-10 weeks. Skin biopsies from the injection site are taken prior to the first administration of the test articles and again after sacrifice following the last administration of the test articles. Biopsy samples are analyzed as described in Example I, with the addition of immunohistochemical staining for type III collagen. Injection site skin samples from animals treated with the compounds disclosed herein, especially those animals treated with Compound 2, show reduced levels of hydroxyproline, decreased Collagen III staining, and decreased fibrosis score relative to the levels shown prior to the administration of the test articles. Mock treated animals show little or no reduction in fibrosis, hydroxyproline content, or Collagen III content.

[4] = system: Agl-/- mice that manifest GSD-3-like hepatic symptoms; assay: GSD-3-like Agl-/- mice (Example 4); conditions: liver samples; relative to levels prior to administration; 6-10 weeks
Method: (§2) Glucose-6-phosphatase-α deficient mice that manifest GSD-3-like hepatic symptoms, including hypercholesterolemia and hyperlipidemia (Agl−/−, see e.g. Liu, K. M. et al., Mol. Genet. Metabol. 111(4):467-76 (2014)) are treated with test articles comprising any one of Compounds 1-4, or any other compound disclosed herein, administered to each subject as appropriate for its formulation, daily or as appropriate, for 6-10 weeks. Liver biopsies are taken prior to the first administration of the test articles and again after sacrifice following the last administration of the test articles. Biopsy samples are analyzed as described in Example I. Liver samples from animals treated with the compounds disclosed herein, especially those animals treated with Compound 2, show reduced levels of hydroxyproline, decreased Collagen I staining, and decreased fibrosis score relative to the levels shown prior to the administration of the test articles. Mock treated animals show little or no reduction in fibrosis, hydroxyproline content, or Collagen I content.

[5] = system: Dunkin-Hartley guinea pigs with pulmonary fibrosis; assay: bleomycin-induced pulmonary fibrosis in guinea pigs (Example 2); conditions: lungs; relative to levels prior to administration; 6-10 weeks
Method: Pulmonary fibrosis is induced in healthy male Dunkin-Hartley guinea pigs by administering bleomycin intratracheally. Control subjects are developed by intratracheal administration of saline solution. After the establishment of pulmonary fibrosis in the bleomycin treated animals, test articles comprising any one of Compounds 1-4, or any other compound disclosed herein, are administered to each subject as appropriate for its formulation, daily or as appropriate, for 6-10 weeks. Unilateral lung biopsies are taken prior to the first administration of the test articles and again after sacrifice following the last administration of the test articles. Biopsy samples are analyzed as described in Example I, with the addition of immunohistochemical staining for type III collagen. Lungs from animals treated with the compounds disclosed herein, especially those animals treated with Compound 2, show reduced levels of hydroxyproline, decreased Collagen III staining, and decreased fibrosis score relative to the levels shown prior to the administration of the test articles. Mock treated animals show little or no reduction in fibrosis, hydroxyproline content, or Collagen III content.

[6] = system: nude mice with palmar fascia fibrosis; assay: palmar fascia fibrosis in nude mice (second Example 2); conditions: relative to levels prior to administration, 6-10 weeks
Description: Palmar fascia fibrosis is induced in nude mice by introducing fibroblasts from fibrotic cords of Dupuytren's disease patients as described in Stish, L. et al., BMC Musculoskelet. Disord. 16: 138-148 (2015) which is hereby incorporated by reference with respect to its description of the establishment of an animal model system for the study of palmar fascia fibrosis. After the establishment of palmar fascia fibrosis in the fibroblast treated animals, test articles comprising any one of Compounds 1-4, or any other compound disclosed herein, are administered to each subject as appropriate for its formulation, daily or as appropriate, for 6-10 weeks. Unilateral forepaw biopsies are taken prior to the first administration of the test articles and again after sacrifice following the last administration of the test articles. Biopsy samples are analyzed as described in Example I, with the addition of immunohistochemical staining for type III collagen. Palmar fascia from animals treated with the compounds disclosed herein, especially those animals treated with Compound 2, show reduced levels of hydroxyproline, decreased Collagen III staining, and decreased fibrosis score relative to the levels shown prior to the administration of the test articles. Mock treated animals show little or no reduction in fibrosis, hydroxyproline content, or Collagen III content.

[7] = system: Phosphorylase kinase deficient mice (PhKc-/-); assay: GSD-8/9-like PhKc-/- mice (Example 5); conditions: liver samples; relative to levels prior to administration; 6-10 weeks
Method: as §2, with “Phosphorylase kinase” for “Glucose-6-phosphatase-α”, “GSD-8/9-like” for “GSD-3-like”, “(PhKc−/−, see, e.g., Varsanyi,” for “(Agl−/−, see e.g. Liu, K.”, “Biochem.” for “Mol.”, “18(3-4):247-61 (1980)),” for “Metabol. 111(4):467-76 (2014))”

[8] = relative to pre-treatment samples, 8 weeks, FIG. 7
[9] = treatment groups relative to untreated controls, week 8, oral
[10] = post-treatment liver, 8 weeks, FIG. 8

Cc1cc(OCP(=O)(OCOC(=O)C(C)(C)C)OCOC(=O)C(C)(C)C)cc(C)c1Cc1ccc(O)c(Cc2ccccc2)c1 [Compound 1]
proportion of animals with reduction in fibrosis score post-treatment (DIO-NASH mice; 8 weeks): higher | liver Picro-Sirius Red (PSR) staining (collagen 1 and 3) (DIO-NASH mice; 8 weeks oral once per day): lower | total liver galectin-3 [1]: reduction | ACTA2 Change versus Vehicle Control ([2]; 8-week dosing, fibrosis marker): −30.5% | ENPP2 Change versus Vehicle Control ([2]; 8-week dosing, fibrosis marker): −44.1% | LGALS1 Change versus Vehicle Control ([2]; 8-week dosing, fibrosis marker): −35.1%

Cc1cc(OCP2(=O)OCC[C@@H](c3cccc(Cl)c3)O2)cc(C)c1Cc1ccc(O)c(C(C)C)c1 (stereo partly shown) [Compound 2]
animals showing increases in fibrosis score post-treatment (DIO-NASH mice; 8 weeks): No | proportion of animals with reduction in fibrosis score post-treatment (DIO-NASH mice; 8 weeks): higher | total liver Col1A1 content (DIO-NASH mice; terminal liver biopsy, anti-type I collagen staining, vs control-treated or mock-treated animals, 8 weeks): lower | liver Picro-Sirius Red (PSR) staining (collagen 1 and 3) (DIO-NASH mice; 8 weeks oral once per day): lower | total liver hydroxyproline levels (DIO-NASH mice; vs control-treated (elafibranor) or mock-treated animals, 8 weeks oral once per day, Compound 2 3 and 10 mg/kg): lower | Collagen III staining [3]: decreased | fibrosis score [3]: decreased | levels of hydroxyproline [3]: reduced | Collagen I staining [4]: decreased | fibrosis score [4]: decreased | levels of hydroxyproline [4]: reduced | Collagen III staining [5]: decreased | fibrosis score [5]: decreased | levels of hydroxyproline [5]: reduced | toxicity ([1]; 8 weeks oral dosing): No significant toxicity | total liver galectin-3 [1]: reduction | reduction in fibrosis (fibrosis score) [1, 8]: 50.2% | reduction in hydroxyproline [1, 8]: 46.3% | reduction in type 1 collagen deposition [1, 8]: 60.2% | liver cholesterol [1, 9]: Significant reductions | liver triglycerides [1, 9]: Significant reductions | NAS scores ([1]; week 8, oral): significant improvements | total lipid content in the liver, reduction ([1]; week 8, oral, FIG. 6): approximately 80% | Collagen III staining [6]: decreased | fibrosis score [6]: decreased | levels of hydroxyproline [6]: reduced | Collagen I staining [7]: decreased | fibrosis score [7]: decreased | levels of hydroxyproline [7]: reduced | ACTA2 Change versus Vehicle Control ([2]; 8-week dosing, fibrosis marker): −37.0% | Col1a1 Change versus Vehicle Control ([2]; 8-week dosing, fibrosis marker): −36.3% | Col3a1 Change versus Vehicle Control ([2]; 8-week dosing, fibrosis marker): −27.1% | ENPP2 Change versus Vehicle Control ([2]; 8-week dosing, fibrosis marker): −56.3% | LGALS1 Change versus Vehicle Control ([2]; 8-week dosing, fibrosis marker): −64.7% | ANXA2 Change versus Vehicle Control ([2]; 8-week dosing, inflammatory marker): −40.3% | expression of pro-inflammatory gene ANXA2 reduced by ([2]; post-treatment liver, 8 weeks): 40.3% | expression of ACTA2 (αSMA) reduced by [2, 10]: 37% | expression of Col1a1 reduced by [2, 10]: 36.3% | expression of Col3a1 reduced by [2, 10]: 27.1% | expression of LGALS1 (Galectin 1) reduced by [2, 10]: 64.7%
